Counter-ions that a name gives are not always drawn.
Columns and labels:
[1] = biological target: T1, proMMP9(67-444;ΔFnII) (SEQ ID NO:5) (Homo sapiens, UniProt P14780, DEL216-390); assay: ThermoFluor binding assay with proMMP9(67-444;ΔFnII)
T1 construct: amino acid pairs including: 29-215/391-444, 67-215/391-444, and 20-215/391-445, respectively; start methionine (N); made in house; host or cells: E. coli BL21(DE3) RIL
T1 sequence (P14780 with tags, fused parts or gaps DEL216-390): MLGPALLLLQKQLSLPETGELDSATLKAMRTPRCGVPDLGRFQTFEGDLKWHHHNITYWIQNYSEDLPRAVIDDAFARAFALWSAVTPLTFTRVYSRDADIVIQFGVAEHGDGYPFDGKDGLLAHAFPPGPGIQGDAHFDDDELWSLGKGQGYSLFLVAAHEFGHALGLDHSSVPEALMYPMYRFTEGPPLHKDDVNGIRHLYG
Procedure: (§1) The experiments were carried out using instruments available from Johnson & Johnson Pharmaceutical Research & Development, LLC. TF dye used in all experiments was […] (1,8-ANS) (Invitrogen: A-47).
(§2) Columns 12 and 24 were used as DMSO reference and contained no compound. […] Following compound dispense, protein and dye solutions were added to achieve the final assay volume of 3 μL.
(§3) Assay plates were robotically loaded onto a thermostatically controlled PCR-type thermal block and then heated from 40 to 90° C. at a ramp-rate of 1° C./min for all experiments. Fluorescence was measured by continuous illumination with UV light (Hamamatsu LC6) supplied via fiber optics and filtered through a band-pass filter (380-400 nm; >6 OD cutoff). Fluorescence emission of the entire 384-well plate was detected by measuring light intensity using a CCD camera (Sensys, Roper Scientific) filtered to detect 500±25 nm, resulting in simultaneous and independent readings of all 384 wells.
(§4) Thermodynamic parameters necessary for fitting compound binding for each proMMP were estimated by differential scanning calorimetry (DSC) and from ThermoFluor® data. The heat capacity of unfolding for each protein was estimated from the molecular weight and from ThermoFluor® dosing data.
The protein sample preparations had to include a desalting buffer exchange step via a PD-10 gravity column (GE Healthcare).

[2] = biological target: T2, proMMP9(20-445;ΔFnII) (SEQ ID NO:6) (Homo sapiens, UniProt P14780, DEL216-390); assay: ThermoFluor binding assay with proMMP9(20-445;ΔFnII)
T2 construct: amino acid pairs including: 29-215/391-444, 67-215/391-444, and 20-215/391-445, respectively; start methionine (N); made in house; host or cells: E. coli BL21(DE3) RIL
T2 sequence (P14780 with tags, fused parts or gaps DEL216-390): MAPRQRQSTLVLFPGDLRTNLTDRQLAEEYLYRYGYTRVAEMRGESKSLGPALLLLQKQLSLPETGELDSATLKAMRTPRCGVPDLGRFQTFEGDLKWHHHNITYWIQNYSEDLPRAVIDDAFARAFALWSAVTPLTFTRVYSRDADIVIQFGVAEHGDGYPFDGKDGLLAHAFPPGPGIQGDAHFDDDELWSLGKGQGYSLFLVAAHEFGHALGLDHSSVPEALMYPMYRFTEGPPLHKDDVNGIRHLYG
Procedure: as §1, §2, §3, §4
The protein sample preparations included a desalting buffer exchange step via a PD-10 gravity column (GE Healthcare).

[3] = biological target: T3, proMMP13(1-268) (SEQ ID NO:7) (Homo sapiens, UniProt P45452); assay: ThermoFluor binding assay with proMMP13(1-268)
T3 construct: 6x-histidine tag (C); made in house; host or cells: HEK293
Procedure: The ThermoFluor® (TF) assay is a 384-well plate-based binding assay that measures thermal stability of proteins (Biomol Screen 2001, 6, 429-40; Biochemistry 2005, 44, 5258-66). The experiments were carried out using instruments available from Johnson & Johnson Pharmaceutical Research & Development, LLC. TF dye used in all experiments was […] (1,8-ANS) (Invitrogen: A-47).
Compounds were arranged in a pre-dispensed plate (Greiner Bio-one: 781280), wherein compounds were serially diluted in 100% DMSO across 11 columns within a series. Columns 12 and 24 were used as DMSO reference and contained no compound. For multiple compound concentration-response experiments, the compound aliquots ([…]) were robotically predispensed directly into black 384-well polypropylene PCR microplates (Abgene: TF-0384/k) using a Cartesian Hummingbird liquid handler (DigiLab, Holliston, Mass.). Following compound dispense, protein and dye solutions were added to achieve the final assay volume of 3 μL. The assay solutions were overlayed with 1 μL of silicone oil (Fluka, type DC 200: 85411) to prevent evaporation.
as §3, with “wells. A single image with 20-sec exposure time was collected at each temperature, and the sum of the pixel intensity in a given area of the assay plate was recorded vs temperature and fit to standard equations to yield the Tm (J Biomol Screen 2001, 6, 429-40).” for “wells.”
as §4
The proMMP13(1-268) (SEQ ID NO:7) protein sample preparations included a desalting buffer exchange step via a PD-10 gravity column (GE Healthcare). The desalting buffer exchange was performed prior to diluting the protein to the final assay concentration of 3.5 μM. The concentration of proMMP13(1-268) (SEQ ID NO:7) was estimated spectrophotometrically based on a calculated extinction coefficient of ε280=37000 M^−1 cm^−1, a calculated molecular weight of 30.8 kDa, and calculated pI of 5.33. ThermoFluor® reference conditions were defined as follows: 100 μg/mL proMMP13(1-268) (SEQ ID NO:7), 25 μM 1,8-ANS, pH 7.0 Buffer (50 mM HEPES pH 7.0, 100 mM NaCl, 0.001% Tween-20, 2.5 mM MgCl2, 300 μM CaCl2). The thermodynamic parameters for proMMP13(1-268) (SEQ ID NO:7) are as follows: Tm (° C.)=67 (+/−0.1), ΔUH(Tm) (cal mol^−1)=107000(+/−5000), ΔUS(Tm) (cal mol^−1 K^−1)=318, ΔUCp (cal mol^−1 K^−1)=2600.

[4] = biological target: full-length proMMP9(1-707) activation by catalytic MMP3 (Homo sapiens, UniProt P14780, R574P); assay: ProMMP9/MMP3 DQ Gelatin Activation Assay;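 note: readout is fluorescence of quenched fluorescein gelatin cut by activated MMP9, 30 min activation at 37 °C, inhibition relative to DMSO-only controls with EDTA as blank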; assay type: biochemical; set-up: made in house; host or cells: COS-1 (proMMP9); E. coli (MMP3); conditions: proMMP9 from COS-1 cells; read-out: ProMMP9/MMP3 DQ gel, IC50
Chain of full-length proMMP9(1-707) activation by catalytic MMP3 (P14780 20-707 R574P): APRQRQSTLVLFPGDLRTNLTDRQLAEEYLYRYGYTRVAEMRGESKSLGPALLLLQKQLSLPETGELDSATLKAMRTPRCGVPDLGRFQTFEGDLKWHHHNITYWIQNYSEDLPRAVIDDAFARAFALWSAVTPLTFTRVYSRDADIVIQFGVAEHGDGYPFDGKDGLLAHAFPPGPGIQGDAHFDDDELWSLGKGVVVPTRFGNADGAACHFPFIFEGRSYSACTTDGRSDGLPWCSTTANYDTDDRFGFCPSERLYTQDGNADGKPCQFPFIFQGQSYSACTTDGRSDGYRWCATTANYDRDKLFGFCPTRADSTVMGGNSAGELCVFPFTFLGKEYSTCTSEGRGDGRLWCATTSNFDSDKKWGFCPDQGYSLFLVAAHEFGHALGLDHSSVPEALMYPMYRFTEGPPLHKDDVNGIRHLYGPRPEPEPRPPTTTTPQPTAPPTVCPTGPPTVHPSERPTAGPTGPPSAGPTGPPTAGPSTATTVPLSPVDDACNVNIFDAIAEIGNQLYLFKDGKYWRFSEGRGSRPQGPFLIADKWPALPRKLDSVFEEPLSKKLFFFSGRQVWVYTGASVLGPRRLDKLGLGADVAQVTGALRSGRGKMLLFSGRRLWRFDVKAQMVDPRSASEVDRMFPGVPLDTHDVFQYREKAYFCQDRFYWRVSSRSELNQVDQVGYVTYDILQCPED
Procedure: Compounds were assessed for inhibition of proMMP9 activation by catalytic MMP3 using a quenched fluorescein gelatin substrate (DQ gelatin, Invitrogen D12054) that fluoresces upon cleavage by activated MMP9. The assay buffer employed was 50 mM Hepes, pH 7.5, 10 mM CaCl2, 0.05% Brij-35. DMSO was included at a final concentration of 0.2%, arising from the test compound addition. […] Test compounds in DMSO were diluted 250-fold in assay buffer at 4× the final concentration. The reaction volume was 12 μL, and all reactions were conducted in triplicate. […] The plate was sealed and incubated for 30 min at 37° C. […] Immediately following the 30 min incubation, 4 μL of 40 μg/ml DQ gelatin substrate was added (freshly diluted in assay buffer), and incubated for 10 min at room temperature. […] Reactivity of residual MMP3 towards DQ gelatin was minimal under these conditions. Percent inhibition of test compounds were determined from suitable positive (DMSO only in assay buffer) and negative (EDTA added prior to reaction initiation) controls. Plots of % inhibition vs. test compound concentration were fit to a four-parameter logistics equation (GraphPad Prism® software) for determination of IC50.

| SMILES | Kd [1] | Kd [2] | Kd [3] | IC50 [4] |
| --- | --- | --- | --- | --- |
| COc1c(Cl)cccc1Nc1nc(-c2sc(N)nc2C)cs1 [Example 7, N^2-(3-Chloro-2-methoxy-phenyl)-4′-methyl-[4,5′]bithiazolyl-2,2′-diamine.HBr] | 8.84 µM | 12.9 µM | 44.6 µM | – |
| Cc1nc(N)sc1-c1csc(Nc2cccc(C(N)=O)c2)n1 [Example 8, 3-(2′-Amino-4′-methyl-[4,5′]bithiazolyl-2-ylamino)-benzamide.HBr] | 30.2 µM | 10.8 µM | 26.9 µM | – |
| COc1ccccc1Nc1nc(-c2cnc(N)s2)cs1 [Example 10, N^2-(2-Methoxy-phenyl)-[4,5′]bithiazolyl-2,2′-diamine.HBr] | 3.67 µM | 9.61 µM | 55.9 µM | – |
| CCc1nc(N)sc1-c1nc(Nc2ccccc2OC)sc1C [Example 11, 4′-Ethyl-N^2-(2-methoxy-phenyl)-5-methyl-[4,5′]bithiazolyl-2,2′-diamine] | 19.9 µM | > 95 µM | 58.9 µM | – |
| CCc1nc(N)sc1-c1nc(Nc2cc(Cl)ccc2OC)sc1C [Example 17, N^2-(5-Chloro-2-methoxy-phenyl)-4′-ethyl-5-methyl-[4,5′]bithiazolyl-2,2′-diamine] | 3.99 µM | 15.6 µM | 10.7 µM | – |
| COc1ccccc1Nc1nc(-c2sc(N)nc2C(F)(F)F)cs1 [Example 22, N^2-(2-Methoxy-phenyl)-4′-trifluoromethyl-[4,5′]bithiazolyl-2,2′-diamine.TFA] | 2.32 µM | 12.3 µM | 44.2 µM | – |
| COc1ccccc1Nc1nc(-c2sc(-c3cnccn3)nc2C)cs1 [Example 26, (2-Methoxy-phenyl)-(4′-methyl-2′-pyrazin-2-yl-[4,5′]bithiazolyl-2-yl)-amine.TFA] | > 95 µM | > 95 µM | 4.78 µM | 13.8 µM |
| COc1ccc(-c2csc(Nc3ccccc3OC)n2)cn1 [Example 28, (2-Methoxy-phenyl)-[4-(6-methoxy-pyridin-3-yl)-thiazol-2-yl]-amine.TFA] | 22.6 µM | > 65 µM | > 95 µM | 15.6 µM |
| COc1ccccc1Nc1nc(-c2cc(C)ccn2)cs1 [Example 30, (2-Methoxy-phenyl)-[4-(4-methyl-pyridin-2-yl)-thiazol-2-yl]-amine.TFA] | 13.8 µM | > 95 µM | 42 µM | – |
| COc1ccccc1Nc1nc(-c2sc(NC(C)C)nc2C)cs1 [Example 37, N^2′-Isopropyl-N^2-(2-methoxy-phenyl)-4′-methyl-[4,5′]bithiazolyl-2,2′-diamine.HCl] | 4.48 µM | 5.16 µM | > 95 µM | > 20 µM |
| COc1ccccc1Nc1nc(-c2ccc(-c3ccccc3)s2)cs1 [Example 43, (2-Methoxy-phenyl)-[4-(5-phenyl-thiophen-2-yl)-thiazol-2-yl]-amine.TFA] | 13.1 µM | 76.7 µM | 20.4 µM | > 20 µM |
| COc1ccccc1Nc1nc(-c2oc(C)nc2C)cs1 [Example 44, [4-(2,4-Dimethyl-oxazol-5-yl)-thiazol-2-yl]-(2-methoxy-phenyl)-amine.TFA] | 44.7 µM | > 95 µM | > 95 µM | 11.9 µM |
| COc1ccccc1Nc1nc(-c2c(C)nc3ccccn23)cs1 [Example 46, (2-Methoxy-phenyl)-[4-(2-methyl-imidazo[1,2-a]pyridin-3-yl)-thiazol-2-yl]-amine] | 36.7 µM | 65.2 µM | 16 µM | 8.6 µM |
| CCOc1ccccc1Nc1nc(-c2sc(NC(=O)CC)nc2C)cs1 [Example 47, N-[2-(2-Ethoxy-phenylamino)-4′-methyl-[4,5′]bithiazolyl-2′-yl]-propionamide] | 40.9 µM | > 90 µM | > 95 µM | 5.2 µM |
| CCOc1ccccc1Nc1nc(-c2c(C)nc3ncccn23)cs1 [Example 52, (2-Ethoxy-phenyl)-[4-(2-methyl-imidazo[1,2-a]pyrimidin-3-yl)-thiazol-2-yl]-amine] | 9.09 µM | 7.27 µM | 13.2 µM | 3.3 µM |
| CCOc1ccccc1Nc1nc(-c2cccnc2)cs1 [Example 53, (2-Ethoxy-phenyl)-(4-pyridin-3-yl-thiazol-2-yl)-amine] | 15.1 µM | 28.6 µM | > 95 µM | 4.7 µM |
| COc1ccccc1Nc1nc(-c2cccnc2)cs1 [Example 55, (2-Methoxy-phenyl)-(4-pyridin-3-yl-thiazol-2-yl)-amine] | 22.5 µM | > 95 µM | > 95 µM | 13 µM |
| CCC(=O)Nc1nc(C)c(-c2csc(Nc3ccccc3OC)n2)s1 [Example 58, N-[2-(2-Methoxy-phenylamino)-4′-methyl-[4,5′]bithiazolyl-2′-yl]-propionamide] | 3.01 µM | 13.4 µM | > 95 µM | 2.6 µM |
| COc1ccccc1Nc1nc(-c2ccncc2)cs1 [Example 60, (2-Methoxy-phenyl)-(4-pyridin-4-yl-thiazol-2-yl)-amine] | 11.3 µM | 16.8 µM | 44.4 µM | 5.5 µM |
| COc1ccc(OC)c(Nc2nc(-c3sc(NC(C)=O)nc3C)cs2)c1 [Example 61, N-[2-(2,5-Dimethoxy-phenylamino)-4′-methyl-[4,5′]bithiazolyl-2′-yl]-acetamide] | 1.06 µM | 5.07 µM | 21 µM | 1.6 µM |
| CCc1ccccc1Nc1nc(-c2sc(NC(C)=O)nc2C)cs1 [Example 62, N-[2-(2-Ethyl-phenylamino)-4′-methyl-[4,5′]bithiazolyl-2′-yl]-acetamide] | 2.46 µM | 8.29 µM | 47.2 µM | 3.4 µM |
